Measured values as given in patent publication US12139520B2 (priority 2020, dated 2024).
pEC50: −log10 of the molar value. Bridge positions count the residues as written; N and C are the ends. Square brackets hold non-standard residues; d marks the D form. Peptide text beside a SMILES is read from it. Hyp = O=C(O)[C@@H]1C[C@@H](O)CN1

How the values were obtained:
[1] = target: T1, hAMY3 receptor (Homo sapiens, UniProt O60896+P30988); experiment: cAMP assay for in vitro receptor activation, hAMY3-R; format: cell-based; details: cAMP assay, hAMY3 receptor; read-out: hAMY3R EC50
T1 sequence (P30988 25-474): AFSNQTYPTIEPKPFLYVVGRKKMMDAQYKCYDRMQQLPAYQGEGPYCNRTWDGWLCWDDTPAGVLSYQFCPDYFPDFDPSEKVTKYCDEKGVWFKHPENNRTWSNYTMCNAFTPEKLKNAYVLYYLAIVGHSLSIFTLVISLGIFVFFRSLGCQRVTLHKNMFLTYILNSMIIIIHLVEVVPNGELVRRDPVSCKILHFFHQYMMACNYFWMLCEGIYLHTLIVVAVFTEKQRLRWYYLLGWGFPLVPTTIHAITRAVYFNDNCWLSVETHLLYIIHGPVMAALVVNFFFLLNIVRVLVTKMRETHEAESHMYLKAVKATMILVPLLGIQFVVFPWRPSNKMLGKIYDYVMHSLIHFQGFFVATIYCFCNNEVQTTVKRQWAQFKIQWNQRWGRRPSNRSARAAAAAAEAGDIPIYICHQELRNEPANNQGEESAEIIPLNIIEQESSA
T1 sequence (O60896 24-148 partner): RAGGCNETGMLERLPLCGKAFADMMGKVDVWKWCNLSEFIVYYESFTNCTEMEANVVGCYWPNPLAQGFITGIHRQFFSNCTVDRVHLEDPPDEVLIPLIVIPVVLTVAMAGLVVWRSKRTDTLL
How it was run: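 Stable hAMY3 cells; DPBS + 0.05% casein + 0.5 mM IBMX; graded compound doses, 30 min, RT; cAMP via HTRF Gs kit, TR-FRET read at 1 h.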

[2] = target: hAM1 receptor (Homo sapiens, UniProt O60895+Q16602); experiment: cAMP assay for in vitro receptor activation, hAM1-R; format: cell-based; details: cAMP assay, hAM1 receptor; read-out: hAM1R EC50
How it was run: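 Monoclonal stable hAM1-overexpressing cells, thawed from frozen stock; 8000 cells/well in DPBS + 0.05% casein + 0.5 mM IBMX; read-out cAMP.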

[3] = Physical stability of peptide analogues (Thioflavin T fibrillation); format: physicochemical; details: maximum ThT signal normalized between hAMY maximum and buffer background; 40° C., shaking, four days; pH 7 per table title
How it was run: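 Peptides in 50 mM sodium acetate pH 4 or 50 mM sodium phosphate pH 7 were preincubated 1 h, mixed with 4 μM ThT, held at 40° C with 700 rpm shaking before each read. Fluorescence (ex 450/em 480 nm) every 10 min for four days; LOESS-smoothed maximum signal normalized in percent between hAMY and buffer.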

Chain of hAM1 receptor (Q16602 23-461): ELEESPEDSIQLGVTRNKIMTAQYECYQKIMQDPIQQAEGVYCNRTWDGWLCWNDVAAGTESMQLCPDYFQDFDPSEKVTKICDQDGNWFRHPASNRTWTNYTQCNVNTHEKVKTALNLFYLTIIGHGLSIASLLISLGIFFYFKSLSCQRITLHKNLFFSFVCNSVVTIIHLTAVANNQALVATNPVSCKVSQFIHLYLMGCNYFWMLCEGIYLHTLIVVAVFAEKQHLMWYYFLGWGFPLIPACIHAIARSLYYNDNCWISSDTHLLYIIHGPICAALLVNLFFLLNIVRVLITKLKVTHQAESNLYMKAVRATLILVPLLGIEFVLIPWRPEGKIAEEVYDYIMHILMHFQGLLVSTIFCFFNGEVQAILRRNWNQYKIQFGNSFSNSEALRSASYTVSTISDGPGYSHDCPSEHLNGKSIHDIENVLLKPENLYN
Chain of hAM1 receptor (O60895 43-175 partner): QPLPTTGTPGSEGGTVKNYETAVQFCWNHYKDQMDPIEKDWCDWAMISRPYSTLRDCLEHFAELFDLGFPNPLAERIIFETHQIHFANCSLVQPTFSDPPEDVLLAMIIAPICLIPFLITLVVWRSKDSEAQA

CC(C)C[C@H](NC(=O)[C@H](Cc1c[nH]c2ccccc12)NC(=O)[C@H](CCC(N)=O)NC(=O)[C@@H](NC(=O)[C@@H](NC(=O)[C@@H]1CSSC[C@H](NC(=O)CN)C(=O)N[C@@H](CCCNC(=N)N)C(=O)N[C@@H](Cc2ccccc2)C(=O)NCC(=O)N[C@@H]([C@@H](C)O)C(=O)N1)[C@@H](C)O)C(C)C)C(=O)N[C@@H](C)C(=O)N[C@@H](Cc1c[nH]cn1)C(=O)N[C@@H](Cc1ccccc1)C(=O)N[C@@H](CC(C)C)C(=O)N[C@@H](Cc1ccc(O)cc1)C(=O)N[C@@H](CCC(N)=O)C(=O)N[C@@H](Cc1ccccc1)C(=O)N[C@H](C(=O)N[C@@H](CC(=O)O)C(=O)N[C@@H](CCCCN)C(=O)N[C@@H](CC(=O)O)C(=O)N[C@@H](CCCCN)C(=O)N[C@@H](CC(=O)O)C(=O)N[C@@H](CC(N)=O)C(=O)N[C@H](C(=O)N[C@@H](C)C(=O)N1CCC[C@H]1C(=O)N[C@@H](CCCNC(=N)N)C(=O)N[C@H](C(=O)N[C@@H](CC(N)=O)C(=O)N[C@H](C(=O)NCC(=O)N1CCC[C@H]1C(=O)N[C@@H](CCC(N)=O)C(=O)NCC(=O)N[C@@H](Cc1ccc(O)cc1)C(N)=O)C(C)C)[C@@H](C)O)C(C)C)[C@@H](C)O [compound 326] (H-GCRFGTCTVQWLAHFLYQFTDKDKDNVAPRTNVGPQGY-NH2; disulfide 2-7; N-terminus assumed)
pEC50 [1]: 10.28 | pEC50 [2]: < 5.30 | Max ThT signal (%) [3]: 2.350%

CC(C)C[C@H](NC(=O)[C@H](Cc1c[nH]c2ccccc12)NC(=O)[C@H](CCC(N)=O)NC(=O)[C@@H](NC(=O)[C@@H](NC(=O)[C@@H]1CSSC[C@H](NC(=O)CN)C(=O)N[C@@H](CCCNC(=N)N)C(=O)N[C@@H](Cc2ccccc2)C(=O)NCC(=O)N[C@@H]([C@@H](C)O)C(=O)N1)[C@@H](C)O)C(C)C)C(=O)N[C@@H](C)C(=O)N[C@@H](Cc1c[nH]cn1)C(=O)N[C@@H](Cc1ccccc1)C(=O)N[C@@H](CC(C)C)C(=O)N[C@@H](Cc1ccc(O)cc1)C(=O)N[C@@H](CCC(N)=O)C(=O)N[C@@H](Cc1ccccc1)C(=O)N[C@H](C(=O)N[C@@H](CC(=O)O)C(=O)N[C@@H](CCCCN)C(=O)N[C@@H](CC(=O)O)C(=O)N[C@@H](CCCCN)C(=O)N[C@@H](CC(=O)O)C(=O)N[C@@H](CC(N)=O)C(=O)N[C@H](C(=O)N[C@@H](C)C(=O)N1CCC[C@H]1C(=O)N[C@@H](CCCNC(=N)N)C(=O)N[C@H](C(=O)N[C@@H](CC(N)=O)C(=O)N[C@H](C(=O)NCC(=O)N[C@@H](CO)C(=O)N[C@@H](CC(N)=O)C(=O)N[C@H](C(=O)N[C@@H](Cc1ccc(O)cc1)C(N)=O)[C@@H](C)O)C(C)C)[C@@H](C)O)C(C)C)[C@@H](C)O [compound 327] (H-GCRFGTCTVQWLAHFLYQFTDKDKDNVAPRTNVGSNTY-NH2; disulfide 2-7; N-terminus assumed)
pEC50 [1]: 10.05 | pEC50 [2]: < 5.30 | Max ThT signal (%) [3]: 3.600%

CC[C@H](C)[C@H](NC(=O)[C@H](CCC(N)=O)NC(=O)[C@H](Cc1c[nH]cn1)NC(=O)[C@H](C)NC(=O)[C@H](CC(C)C)NC(=O)[C@H](Cc1c[nH]c2ccccc12)NC(=O)[C@H](CCC(N)=O)NC(=O)[C@@H](NC(=O)[C@@H](NC(=O)[C@@H]1CSSC[C@H](NC(=O)[C@@H](N)CCCCN)C(=O)N[C@@H](CC(N)=O)C(=O)N[C@@H]([C@@H](C)O)C(=O)N[C@@H](C)C(=O)N[C@@H]([C@@H](C)O)C(=O)N1)[C@@H](C)O)C(C)C)C(=O)N[C@@H](Cc1ccc(O)cc1)C(=O)N[C@@H](CCC(N)=O)C(=O)N[C@@H](Cc1ccccc1)C(=O)N[C@H](C(=O)N[C@@H](CC(=O)O)C(=O)N[C@@H](C)C(=O)N[C@@H](CC(=O)O)C(=O)N[C@@H](CCCCN)C(=O)N[C@@H](CC(=O)O)C(=O)N[C@@H](CC(N)=O)C(=O)N[C@H](C(=O)N[C@@H](C)C(=O)N1CCC[C@H]1C(=O)N1CCC[C@H]1C(=O)N[C@H](C(=O)N[C@@H](CC(N)=O)C(=O)N[C@H](C(=O)NCC(=O)N[C@@H](CO)C(=O)N[C@@H](CC(N)=O)C(=O)NCC(=O)N1C[C@H](O)C[C@H]1C(N)=O)C(C)C)[C@@H](C)O)C(C)C)[C@@H](C)O [compound 328] (H-KCNTATCTVQWLAHQIYQFTDADKDNVAPPTNVGSNG[Hyp]-NH2; disulfide 2-7; N-terminus assumed)
pEC50 [1]: 11.00 | pEC50 [2]: < 5.30 | Max ThT signal (%) [3]: 33.250%

CC[C@H](C)[C@H](NC(=O)[C@H](CCC(N)=O)NC(=O)[C@H](Cc1c[nH]cn1)NC(=O)[C@H](C)NC(=O)[C@H](CC(C)C)NC(=O)[C@H](Cc1c[nH]c2ccccc12)NC(=O)[C@H](CCC(N)=O)NC(=O)[C@@H](NC(=O)[C@@H](NC(=O)[C@@H]1CSSC[C@H](NC(=O)[C@@H](N)CCCCN)C(=O)N[C@@H](CC(N)=O)C(=O)N[C@@H]([C@@H](C)O)C(=O)N[C@@H](C)C(=O)N[C@@H]([C@@H](C)O)C(=O)N1)[C@@H](C)O)C(C)C)C(=O)N[C@@H](Cc1ccc(O)cc1)C(=O)N[C@@H](CCC(N)=O)C(=O)N[C@@H](Cc1ccccc1)C(=O)N[C@@H](CC(=O)O)C(=O)N[C@@H](CCCCN)C(=O)N[C@@H](CC(=O)O)C(=O)N[C@@H](CCCCN)C(=O)N[C@@H](CC(=O)O)C(=O)N[C@@H](CC(N)=O)C(=O)N[C@H](C(=O)N[C@@H](C)C(=O)N1CCC[C@H]1C(=O)N1CCC[C@H]1C(=O)N[C@H](C(=O)N[C@@H](CC(N)=O)C(=O)N[C@H](C(=O)NCC(=O)N[C@@H](CO)C(=O)N[C@@H](CC(N)=O)C(=O)NCC(=O)N1C[C@H](O)C[C@H]1C(N)=O)C(C)C)[C@@H](C)O)C(C)C [compound 329] (H-KCNTATCTVQWLAHQIYQFDKDKDNVAPPTNVGSNG[Hyp]-NH2; disulfide 2-7; N-terminus assumed)
pEC50 [1]: 10.49 | pEC50 [2]: < 5.30 | Max ThT signal (%) [3]: 6.350%

CC[C@H](C)[C@H](NC(=O)[C@H](CCC(N)=O)NC(=O)[C@H](Cc1c[nH]cn1)NC(=O)[C@H](C)NC(=O)[C@H](CC(C)C)NC(=O)[C@H](Cc1c[nH]c2ccccc12)NC(=O)[C@H](CCC(N)=O)NC(=O)[C@@H](NC(=O)[C@@H](NC(=O)[C@@H]1CSSC[C@H](NC(=O)[C@@H](N)CCCCN)C(=O)N[C@@H](CC(N)=O)C(=O)N[C@@H]([C@@H](C)O)C(=O)N[C@@H](C)C(=O)N[C@@H]([C@@H](C)O)C(=O)N1)[C@@H](C)O)C(C)C)C(=O)N[C@@H](Cc1ccc(O)cc1)C(=O)N[C@@H](CCC(N)=O)C(=O)N[C@@H](Cc1ccccc1)C(=O)N[C@H](C(=O)N[C@@H](CC(=O)O)C(=O)N[C@@H](CCCCN)C(=O)N[C@@H](CC(=O)O)C(=O)N[C@@H](CCCCN)C(=O)N[C@@H](CC(=O)O)C(=O)N[C@@H](CC(N)=O)C(=O)N[C@H](C(=O)N[C@@H](C)C(=O)N1CCC[C@H]1C(=O)N1CCC[C@H]1C(=O)N[C@H](C(=O)N[C@@H](CC(N)=O)C(=O)N[C@H](C(=O)NCC(=O)N[C@@H](CO)C(=O)N[C@@H](CC(N)=O)C(=O)NCC(=O)N1C[C@H](O)C[C@H]1C(N)=O)C(C)C)[C@@H](C)O)C(C)C)[C@@H](C)O [compound 330] (H-KCNTATCTVQWLAHQIYQFTDKDKDNVAPPTNVGSNG[Hyp]-NH2; disulfide 2-7; N-terminus assumed)
pEC50 [1]: 11.10 | pEC50 [2]: < 5.30 | Max ThT signal (%) [3]: 14.600%

CC[C@H](C)[C@H](NC(=O)[C@H](CCC(N)=O)NC(=O)[C@H](Cc1c[nH]cn1)NC(=O)[C@H](C)NC(=O)[C@H](CC(C)C)NC(=O)[C@H](Cc1c[nH]c2ccccc12)NC(=O)[C@H](CCC(N)=O)NC(=O)[C@@H](NC(=O)[C@@H](NC(=O)[C@@H]1CSSC[C@H](NC(=O)CN)C(=O)N[C@@H](CCCNC(=N)N)C(=O)N[C@@H]([C@@H](C)O)C(=O)NCC(=O)N[C@@H]([C@@H](C)O)C(=O)N1)[C@@H](C)O)C(C)C)C(=O)N[C@@H](Cc1ccc(O)cc1)C(=O)N[C@@H](CCC(N)=O)C(=O)N[C@@H](Cc1ccccc1)C(=O)N[C@H](C(=O)N[C@@H](CC(=O)O)C(=O)N[C@@H](CCCCN)C(=O)N[C@@H](CC(=O)O)C(=O)N[C@@H](CCCCN)C(=O)N[C@@H](CC(=O)O)C(=O)N[C@@H](CC(N)=O)C(=O)N[C@H](C(=O)N[C@@H](C)C(=O)N1CCC[C@H]1C(=O)N[C@@H](CCCNC(=N)N)C(=O)N[C@H](C(=O)N[C@@H](CC(N)=O)C(=O)N[C@H](C(=O)NCC(=O)N1CCC[C@H]1C(=O)N[C@@H](CC(N)=O)C(=O)NCC(=O)N[C@@H](Cc1ccc(O)cc1)C(N)=O)C(C)C)[C@@H](C)O)C(C)C)[C@@H](C)O [compound 332] (H-GCRTGTCTVQWLAHQIYQFTDKDKDNVAPRTNVGPNGY-NH2; disulfide 2-7; N-terminus assumed)
pEC50 [1]: 11.15 | pEC50 [2]: < 5.30 | Max ThT signal (%) [3]: 2.100%
